According to US8912120B2, “Herbicidal compositions comprising 4-amino-3-chloro-5-fluoro-6-(4-chloro-2-fluoro-3-methoxyphenyl) pyridine-2-carboxylic acid or a derivative thereof and synthetic auxin herbicides” (Dow AgroSciences, LLC., priority 2012, dated 2014):
Read-outs that look alike come from different tables or passages of the source.

What was measured:
ECHCO = assay: Example I: postemergence foliar-applied herbicidal mixtures, direct seeded rice, ECHCO
Procedure: The soil matrix was contained in plastic pots with a volume of 1 quart and a surface area of 83.6 square centimeters (cm^2). […] The plants were grown for 8-22 days in a greenhouse with an approximate 14 h photoperiod which was maintained at about 29° C. during the day and 26° C. during the night. Nutrients (Peters Excel® 15-5-15 5-Ca 2-Mg and iron chelate) were applied in the irrigation solution as needed and water was added on a regular basis. Supplemental lighting was provided with overhead metal halide 1000-Watt lamps as necessary. The plants were employed for testing when they reached the first through fourth true leaf stage.
Treatments consisted of the acid or esters of 4-amino-3-chloro-5-fluoro-6-(4-chloro-2-fluoro-3-methoxy-phenyl)pyridine-2-carboxylic acid (Compound A), each formulated as an SC (suspension concentrate), and various herbicidal components alone and in combination. Forms of compound A were applied on an acid equivalent basis.
For treatments comprised of formulated compounds, measured amounts of compounds were placed individually in 25 mL glass vials and diluted in a volume of 1.25% (v/v) Agri-Dex® crop oil concentrated to obtain 12× stock solutions. […] Application solutions were prepared by adding an appropriate amount of each stock solution (e.g., 1 mL) and diluted to the appropriate final concentrations with the addition of 10 mL of an aqueous mixture of 1.25% (v/v) crop oil concentrate so that the final spray solutions contained 1.25+/−0.05% (v/v) crop oil concentrate.
All stock solutions and applications solutions were visually inspected for compound compatibility prior to application. Spray solutions were applied to the plant material with an overhead Mandel track sprayer equipped with a 8002E nozzles calibrated to deliver 187 L/ha over an application area of 0.503 m^2 at a spray height of 18 to 20 inches (46 to 50 cm) above average plant canopy height. Control plants were sprayed in the same manner with the solvent blank.
The treated plants and control plants were placed in a greenhouse as described above and watered by sub-irrigation to prevent wash-off of the test compounds. After approximately 3 weeks, the condition of the test plants as compared with that of the untreated plants was determined visually and scored on a scale of 0 to 100 percent where 0 corresponds to no injury or growth inhibition and 100 corresponds to complete kill.
Colby's equation was used to determine the herbicidal effects expected from the mixtures (Colby, S. R. 1967. Calculation of the synergistic and antagonistic response of herbicide combinations. Weeds 15:20-22).
The following equation was used to calculate the expected activity of mixtures containing two active ingredients, A and B: Expected=A+B−(A×B/100)
A=observed efficacy of active ingredient A at the same concentration as used in the mixture.
B=observed efficacy of active ingredient B at the same concentration as used in the mixture.

CYPRO = assay: Example II: in-water applied herbicidal mixtures, weed control in transplanted paddy rice (greenhouse), CYPRO; type: in vivo, Cyperus rotundus (purple nutsedge); conditions: for Visual Weed Control (%) - 20 DAA CYPRO Obs / Visual Weed Control (%) - 21 DAA CYPRO Obs / Visual Weed Control (%) - 22 DAA CYPRO Obs: in-water application
In short: (§1)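 Rice transplanted (2nd–3rd leaf) into non-perforated mud pots 4 d pre-application; Osmocote 19:6:12 fertiliser. In-water application: pipette injection into aqueous layer, components individually/sequentially. Solvent blank controls; acetone and crop oil concentrate equalised.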

ECHOR = assay: Example II: in-water applied herbicidal mixtures, transplanted paddy rice, ECHOR; type: in vivo, Echinochloa oryzoides (early watergrass)
In short: as §1

LEFCH = assay: Example II: in-water applied herbicidal mixtures, transplanted paddy rice, LEFCH; type: in vivo, Leptochloa chinensis (Chinese sprangletop); conditions: for Visual Weed Control (%) - 21 DAA LEFCH Obs / Visual Weed Control (%) - 25 DAA LEFCH Obs: in-water application; for Visual Weed Control (%) Obs: 22 DAA
In short: as §1

[1] = 8.75 gae/ha, in-water application
[2] = 17.5 gae/ha, in-water application
[3] = 35 gae/ha, in-water application

## COc1c(Cl)ccc(-c2nc(C(=O)O)c(Cl)c(N)c2F)c1F [Compound A Acid, 4-amino-3-chloro-6-(4-chloro-2-fluoro-3-methoxyphenyl)-5-fluoropyridine-2-carboxylic acid]
ECHCO; 4.38 gae/ha
  Visual Weed Control (%) - 21 DAA ECHCO Obs: 70%
ECHCO; 8.75 gae/ha
  Visual Weed Control (%) - 21 DAA ECHCO Obs: 75%
CYPRO; 8.75 gae/ha
  Visual Weed Control (%) - 20 DAA CYPRO Obs: 0%
  Visual Weed Control (%) - 21 DAA CYPRO Obs: 0%
  Visual Weed Control (%) - 22 DAA CYPRO Obs: 0%
CYPRO; 17.5 gae/ha
  Visual Weed Control (%) - 20 DAA CYPRO Obs: 70%
  Visual Weed Control (%) - 21 DAA CYPRO Obs: 30%
  Visual Weed Control (%) - 22 DAA CYPRO Obs: 20%
CYPRO; 20 DAA, 10.6 gae/ha
  Visual Weed Control (%) Obs: 10%
CYPRO; 20 DAA, 21.2 gae/ha
  Visual Weed Control (%) Obs: 20%
CYPRO; 22 DAA, 8.75 gae/ha
  Visual Weed Control (%) Obs: 0%
CYPRO; 22 DAA, 10.6 gae/ha
  Visual Weed Control (%) Obs: 0%
CYPRO; 22 DAA, 17.5 gae/ha
  Visual Weed Control (%) Obs: 20%
CYPRO; 22 DAA, 21.2 gae/ha
  Visual Weed Control (%) Obs: 40%
CYPRO; 22 DAA, 35 gae/ha
  Visual Weed Control (%) Obs: 50%
CYPRO; 35 gae/ha
  Visual Weed Control (%) - 21 DAA CYPRO Obs: 85%
  Visual Weed Control (%) - 22 DAA CYPRO Obs: 50%
ECHOR; [1]
  Visual Weed Control (%) - 20 DAA ECHOR Obs: 10%
  Visual Weed Control (%) - 21 DAA ECHOR Obs: 10%
  Visual Weed Control (%) - 22 DAA ECHOR Obs: 0%
  Visual Weed Control (%) - 25 DAA ECHOR Obs: 0%
ECHOR; [2]
  Visual Weed Control (%) - 20 DAA ECHOR Obs: 25%
  Visual Weed Control (%) - 21 DAA ECHOR Obs: 15%
  Visual Weed Control (%) - 22 DAA ECHOR Obs: 0%
  Visual Weed Control (%) - 25 DAA ECHOR Obs: 0%
ECHOR; [3]
  Visual Weed Control (%) - 20 DAA ECHOR Obs: 25%
  Visual Weed Control (%) - 21 DAA ECHOR Obs: 20%
  Visual Weed Control (%) - 22 DAA ECHOR Obs: 20%
  Visual Weed Control (%) - 25 DAA ECHOR Obs: 40%
ECHOR; 42.4 gae/ha, in-water application
  Visual Weed Control (%) - 19 DAA ECHOR Obs: 15%
ECHOR; Echinochloa oryzoides, 456 h, 19 DAA, 42.4 gae/ha, read-out: Visual Weed Control (%) Obs
  pest or weed control at 42.4 g/ha: 15%
ECHOR; Echinochloa oryzoides, 480 h, 20 DAA, 21.2 gae/ha, read-out: Visual Weed Control (%) Obs
  pest or weed control at 21.2 g/ha: 30%
ECHOR; Echinochloa oryzoides, 480 h, 20 DAA, 84.8 gae/ha, read-out: Visual Weed Control (%) Obs
  pest or weed control at 84.8 g/ha: 33%
ECHOR; Echinochloa oryzoides, 504 h, 21 DAA, 8.75 gae/ha, read-out: Visual Weed Control (%) Obs
  pest or weed control at 8.75 g/ha: 0%
ECHOR; Echinochloa oryzoides, 504 h, 21 DAA, 17.5 gae/ha, read-out: Visual Weed Control (%) Obs
  pest or weed control at 17.5 g/ha: 0%
ECHOR; Echinochloa oryzoides, 504 h, 21 DAA, 35 gae/ha, read-out: Visual Weed Control (%) Obs
  pest or weed control at 35 g/ha: 20%
ECHOR; Echinochloa oryzoides, 504 h, 21 DAA, 42.4 gae/ha, read-out: Visual Weed Control (%) Obs
  pest or weed control at 42.4 g/ha: 15%
ECHOR; Echinochloa oryzoides, 528 h, 22 DAA, 8.75 gae/ha, read-out: Visual Weed Control (%) Obs
  pest or weed control at 8.75 g/ha: 0%
ECHOR; Echinochloa oryzoides, 528 h, 22 DAA, 17.5 gae/ha, read-out: Visual Weed Control (%) Obs
  pest or weed control at 17.5 g/ha: 0%
ECHOR; Echinochloa oryzoides, 528 h, 22 DAA, 35 gae/ha, read-out: Visual Weed Control (%) Obs
  pest or weed control at 35 g/ha: 20%
ECHOR; Echinochloa oryzoides, 600 h, 25 DAA, 8.75 gae/ha, read-out: Visual Weed Control (%) Obs
  pest or weed control at 8.75 g/ha: 0%
ECHOR; Echinochloa oryzoides, 600 h, 25 DAA, 17.5 gae/ha, read-out: Visual Weed Control (%) Obs
  pest or weed control at 17.5 g/ha: 0%
ECHOR; Echinochloa oryzoides, 600 h, 25 DAA, 35 gae/ha, read-out: Visual Weed Control (%) Obs
  pest or weed control at 35 g/ha: 40%
LEFCH; 8.75 gae/ha
  Visual Weed Control (%) - 21 DAA LEFCH Obs: 0%
  Visual Weed Control (%) - 25 DAA LEFCH Obs: 50%
LEFCH; 17.5 gae/ha
  Visual Weed Control (%) - 21 DAA LEFCH Obs: 0%
  Visual Weed Control (%) - 25 DAA LEFCH Obs: 50%
LEFCH; 10.6 gae/ha
  Visual Weed Control (%) Obs: 20%
LEFCH; 21.2 gae/ha
  Visual Weed Control (%) Obs: 40%
LEFCH; 42.4 gae/ha
  Visual Weed Control (%) Obs: 60%
